Measured values published in patent publication US6924302B2, “Substituted triazole diamine derivatives as kinase inhibitors” (Ortho McNeil Pharmaceutical, Inc., priority 2000, dated 2005).

What was measured:
[1] = target: T1, VEGF-R (vascular endothelial growth factor receptor-2) (Rattus norvegicus, UniProt O08775); experiment: VEGF-R Screening Assay; assay type: biochemical; conditions: Table 1; read-out: VEGF-R IC50
T1 construct: polyhistidine (6xHIS) (N)
Description: (§1) 70 μL of the kinase reaction mixture was dispensed into the well of a streptavidin coated FlashPlate™ (Cat. # SMP103, NEN, Boston, Mass.). Then 1 μL of test compound stock in 100% DMSO was added to the wells resulting in a final concentration of 1% DMSO in the reaction with a 100 μL final reaction volume. Next, soluble rat tyrosine kinase containing an N-terminal 6×HIS tag was diluted in 50 mM Tris-HCl pH=8.0, 0.1% BSA at a concentration of 5 ng per μL and 30 μL (150 ng enzyme per test well) was added to each well to initiate the reaction. The reaction was incubated for one hour at 30° C. At the end of the 1-hour incubation, the reaction was terminated by aspirating the reaction mixture from the plate and washing the wells twice with PBS containing 100 mM EDTA. The PLC1 biotinylated peptide substrate became immobilized on the Flashplate™ and the incorporation of ^33P-γ-ATP was measured by reading the plate on a scintillation counter. Inhibition of the enzymatic activity of the VEGF-R was measured by observing a reduced amount of ^33P-γ-ATP incorporated into the immobilized peptide.
Assays to test compound inhibition of other kinases were preformed using methods that measure the amount of phosphorylation of a biotinylated peptide substrate. Biotinylated peptide substrates were selected from the literature as appropriate for the enzyme being evaluated. […] Assay conditions vary slightly for each protein kinase, for example, insulin receptor kinase requires 10 mM MnCl2 for activity and Calmodulin-dependent protein kinase requires calmodulin and 10 mM CaCl2. These assay conditions are known in the art. The reaction mixture was dispensed into the wells of a streptavidin coated Flashplate and 1 μl drug stock in 100% DMSO was added to a 100 μl reaction volume resulting in a final concentration of 1% DMSO on the reaction. Enzyme was diluted in 50 mM Tris-HCl pH=8.0, 0.1% BSA and add to each well. The reaction was incubated for one hour at 30° C. in the presence of compound. After one hour the reaction mix was aspirated from the plate and the plate was washed with PBS containing 100 mM EDTA. The plate was read on a scintillation counter to determine ^33P-γ-ATP incorporated into the immobilized peptide. Test compounds were assayed in duplicate at 8 concentrations [100 uM, 10 uM, 1 uM, 100 nM, 10 nM, 1 nM, 100 pM, 10 pM]. A maximum and minimum signal for the assay was determined on each plate. The IC50 was calculated from the dose response curve of the percent inhibition of the maximum signal in the assay according to the formula [max signal—background/test compound signal—background (100)=% inhibition] by graphing the percent inhibition against the log concentration of test compound. Known inhibitor compounds appropriate for the kinase being assayed were also included on each plate.
CDK2 in complex with cyclin A is commercially available (Upstate Biotech, Lake Placid, N.Y.). The CDK4 complex was composed of a mouse CDK4 protein and a mouse Cyclin D1 protein (The mouse CDK4 protein was genetically fused to an N-terminal Flag-epitope tag and the mouse Cyclin D1 protein was fused with an N-terminal AU-1 epitope tag. The genes encoding these proteins were transferred to commercially available baculoviral vectors. The recombinant CDK4/D1 complex was then made by co-infecting commercially available insect cells with viruses carrying these two constructs). […] ERK-1 protein (Discontinued from Calbiochem). EGFR (epidermal growth factor receptor) is purified from human A431 cell membranes (Sigma, St. Louis, Mo., Cat.# E3641).

CDK1:Cyclin-B = target: T2, CDK1:Cyclin-B (Homo sapiens, UniProt P06493); experiment: CDK1 Screening Assay; assay type: biochemical; conditions: Table 1; read-out: CDK1 IC50
T2 construct: purchased New England Biolabs 6020; host or cells: insect cells
T2 sequence (P06493 whole entry): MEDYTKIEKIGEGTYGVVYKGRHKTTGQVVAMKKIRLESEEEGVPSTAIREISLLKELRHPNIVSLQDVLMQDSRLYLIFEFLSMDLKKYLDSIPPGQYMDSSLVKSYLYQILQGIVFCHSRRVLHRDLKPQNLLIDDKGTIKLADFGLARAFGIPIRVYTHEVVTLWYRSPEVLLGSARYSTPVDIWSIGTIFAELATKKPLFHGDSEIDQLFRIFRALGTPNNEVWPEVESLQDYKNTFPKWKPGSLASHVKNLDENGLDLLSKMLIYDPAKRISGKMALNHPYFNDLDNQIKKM
T2 sequence (P14635 whole entry partner): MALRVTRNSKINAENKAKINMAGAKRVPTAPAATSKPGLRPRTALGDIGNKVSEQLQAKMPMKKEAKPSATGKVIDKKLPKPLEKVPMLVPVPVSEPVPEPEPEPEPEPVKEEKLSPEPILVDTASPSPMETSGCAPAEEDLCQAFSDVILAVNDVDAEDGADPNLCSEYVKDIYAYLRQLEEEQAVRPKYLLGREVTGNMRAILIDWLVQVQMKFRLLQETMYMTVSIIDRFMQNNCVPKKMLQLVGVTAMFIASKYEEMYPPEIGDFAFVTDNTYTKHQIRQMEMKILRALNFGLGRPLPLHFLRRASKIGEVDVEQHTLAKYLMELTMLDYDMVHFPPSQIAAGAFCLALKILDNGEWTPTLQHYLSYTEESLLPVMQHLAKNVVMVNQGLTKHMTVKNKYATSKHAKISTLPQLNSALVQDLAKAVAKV
Description: as §1, with “100 μl” for “100 μL”, “Next, CDK1:Cyclin-B protein” for “Next, soluble rat tyrosine kinase containing an N-terminal 6×HIS tag”, “of 1” for “of 5”, “30 μl (30” for “30 μL (150”, “The histone-H1” for “The PLC1”, “of CDK1” for “of the VEGF-R”
Assays to test compound inhibition of other kinases were preformed using methods that measure the amount of phosphorylation of a biotinylated peptide substrate. Biotinylated peptide substrates were selected from the literature as appropriate for the enzyme being evaluated. […] Assay conditions vary slightly for each protein kinase, for example, insulin receptor kinase requires 10 mM MnCl2 for activity and Calmodulin-dependent protein kinase requires calmodulin and 10 mM CaCl2. These assay conditions are known in the art. The reaction mixture was dispensed into the wells of a streptavidin coated Flashplate and 1 μl drug stock in 100% DMSO was added to a 100 μl reaction volume resulting in a final concentration of 1% DMSO on the reaction. Enzyme was diluted in 50 mM Tris-HCl pH=8.0, 0.1% BSA and add to each well. The reaction was incubated for one hour at 30° C. in the presence of compound. After one hour the reaction mix was aspirated from the plate and the plate was washed with PBS containing 100 mM EDTA. The plate was read on a scintillation counter to determine ^33P-γ-ATP incorporated into the immobilized peptide. Test compounds were assayed in duplicate at 8 concentrations [100 uM, 10 uM, 1 uM, 100 nM, 10 nM, 1 nM, 100 pM, 10 pM]. A maximum and minimum signal for the assay was determined on each plate. The IC50 was calculated from the dose response curve of the percent inhibition of the maximum signal in the assay according to the formula [max signal—background/test compound signal—background (100)=% inhibition] by graphing the percent inhibition against the log concentration of test compound. Known inhibitor compounds appropriate for the kinase being assayed were also included on each plate. […]

T1 sequence (O08775 786-1343): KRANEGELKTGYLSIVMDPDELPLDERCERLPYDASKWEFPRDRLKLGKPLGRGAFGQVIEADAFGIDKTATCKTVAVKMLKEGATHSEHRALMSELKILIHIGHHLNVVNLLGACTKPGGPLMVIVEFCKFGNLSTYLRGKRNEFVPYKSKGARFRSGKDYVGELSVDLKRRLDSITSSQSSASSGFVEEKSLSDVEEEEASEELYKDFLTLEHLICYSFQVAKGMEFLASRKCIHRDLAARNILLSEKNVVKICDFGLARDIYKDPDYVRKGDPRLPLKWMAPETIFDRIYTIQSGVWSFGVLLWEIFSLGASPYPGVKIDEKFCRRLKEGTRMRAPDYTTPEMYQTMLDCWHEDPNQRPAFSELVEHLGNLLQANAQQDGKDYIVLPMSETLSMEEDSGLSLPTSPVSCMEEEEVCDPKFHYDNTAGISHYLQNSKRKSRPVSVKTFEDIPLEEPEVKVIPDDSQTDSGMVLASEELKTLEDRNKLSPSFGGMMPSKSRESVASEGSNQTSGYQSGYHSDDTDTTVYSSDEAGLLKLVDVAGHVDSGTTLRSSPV

SMILES	IC50 [1] [nM]	IC50 (CDK1:Cyclin-B) [nM]
Nc1nc(Nc2ccc(S(N)(=O)=O)cc2)nn1C(=O)c1c(F)ccc(F)c1F [Cpd 3, 4-[[5-amino-1-(2,3,6-trifluorobenzoyl)-1H-1,2,4-triazol-3-yl]amino]-benzenesulfonamide]	332	8
Nc1nc(Nc2ccc(S(N)(=O)=O)cc2)nn1C(=O)c1ccccc1F [Cpd 4, 4-[[5-amino-1-(2-fluorobenzoyl)-1H-1,2,4-triazol-3-yl]amino]-benzenesulfonamide]	387	22.3
Nc1nc(Nc2ccc(S(N)(=O)=O)cc2)nn1C(=O)c1ccc(F)cc1F [Cpd 5, 4-[[5-amino-1-(2,4-difluorobenzoyl)-1H-1,2,4-triazol-3-yl]amino]-benzenesulfonamide]	521	144
Nc1nc(Nc2ccc(S(N)(=O)=O)cc2)nn1C(=O)c1c(F)cccc1C(F)(F)F [Cpd 6, 4-[[5-amino-1-[2-fluoro-6-(trifluoromethyl)benzoyl]-1H-1,2,4-triazol-3-yl]amino]-benzenesulfonamide]	8140	39.4
Nc1nc(Nc2ccc(S(N)(=O)=O)cc2)nn1C(=O)c1c(Cl)cccc1Cl [Cpd 7, 4-[[5-amino-1-(2,6-dichlorobenzoyl)-1H-1,2,4-triazol-3-yl]amino]-benzenesulfonamide]	> 10000	57
Nc1nc(Nc2ccc(S(N)(=O)=O)cc2)nn1C(=O)c1c(Cl)cc(Cl)cc1Cl [Cpd 8, 4-[[5-amino-1-(2,4,6-trichlorobenzoyl)-1H-1,2,4-triazol-3-yl]amino]-benzenesulfonamide]	> 100000	136
Nc1nc(Nc2ccc(S(N)(=O)=O)cc2)nn1C(=O)c1ccccc1[N+](=O)[O-] [Cpd 9, 4-[[5-amino-1-(2-nitrobenzoyl)-1H-1,2,4-triazol-3-yl]amino]-benzenesulfonamide]	1600	39
COc1cccc(OC)c1C(=O)n1nc(Nc2ccc(S(N)(=O)=O)cc2)nc1N [Cpd 10, 4-[[5-amino-1-(2,6-dimethoxybenzoyl)-1H-1,2,4-triazol-3-yl]amino]-benzenesulfonamide]	491	252
Cc1cc(C)c(C(=O)n2nc(Nc3ccc(S(N)(=O)=O)cc3)nc2N)c(C)c1 [Cpd 11, 4-[[5-amino-1-(2,4,6-trimethylbenzoyl)-1H-1,2,4-triazol-3-yl]amino]-benzenesulfonamide]	> 100000	305
Nc1nc(Nc2ccc(S(N)(=O)=O)cc2)nn1C(=O)c1ccccc1 [Cpd 12, 4-[(5-amino-1-benzoyl-1H-1,2,4-triazol-3-yl)amino]-benzenesulfonamide]	84.1	45.4
Nc1nc(Nc2ccc(S(=O)(=O)N3CCCCC3)cc2)nn1C(=O)c1c(F)cccc1F [Cpd 13, 1-(2,6-difluorobenzoyl)-N^3-[4-(1-piperidinylsulfonyl)phenyl]-1H-1,2,4-triazole-3,5-diamine]	532	535
CCOc1ccsc1C(=O)n1nc(Nc2ccc(S(N)(=O)=O)cc2)nc1N [Cpd 18, 4-[[5-amino-1-[(3-ethoxy-2-thienyl)carbonyl]-1H-1,2,4-triazol-3-yl]amino]-benzenesulfonamide]	58	67
CC(=O)Nc1ccsc1C(=O)n1nc(Nc2ccc(S(N)(=O)=O)cc2)nc1N [Cpd 19, N-[2-[[5-amino-3-[[4-(aminosulfonyl)phenyl]amino]-1H-1,2,4-triazol-1-yl]carbonyl]-3-thienyl]-acetamide]	291	33.9
Cc1ccc(C(=O)n2nc(Nc3ccc(S(N)(=O)=O)cc3)nc2N)s1 [Cpd 20, 4-[[5-amino-1-[(5-methyl-2-thienyl)carbonyl]-1H-1,2,4-triazol-3-yl]amino]-benzenesulfonamide]	31	4.4
Nc1nc(Nc2ccc(S(N)(=O)=O)cc2)nn1C(=O)c1ccc(Br)s1 [Cpd 21, 4-[[5-amino-1-[(5-bromo-2-thienyl)carbonyl]-1H-1,2,4-triazol-3-yl]amino]-benzenesulfonamide]	23	8.8
CC(=O)c1ccc(C(=O)n2nc(Nc3ccc(S(N)(=O)=O)cc3)nc2N)s1 [Cpd 22, 4-[[1-[(5-acetyl-2-thienyl)carbonyl]-5-amino-1H-1,2,4-triazol-3-yl]amino]-benzenesulfonamide]	233	31.8
Cc1ccsc1C(=O)n1nc(Nc2ccc(S(=O)(=O)N3CCCCC3)cc2)nc1N [Cpd 24, 1-[(3-methyl-2-thienyl)carbonyl]-N^3-[4-(1-piperidinylsulfonyl)phenyl]-1H-1,2,4-triazole-3,5-diamine]	67.4	282
Nc1nc(Nc2ccc(S(N)(=O)=O)cc2)nn1C(=O)c1ccco1 [Cpd 25, 4-[[5-amino-1-(2-furanylcarbonyl)-1H-1,2,4-triazol-3-yl]amino]-benzenesulfonamide]	64	19.5
Nc1nc(Nc2ccc(S(N)(=O)=O)cc2)nn1C(=O)c1ccno1 [Cpd 26, 4-[[5-amino-1-(5-isoxazolylcarbonyl)-1H-1,2,4-triazol-3-yl]amino]-benzenesulfonamide]	~100000	18400
Nc1nc(Nc2ccc(S(N)(=O)=O)cc2)nn1C(=O)c1ccccn1 [Cpd 27, 4-[[5-amino-1-(2-pyridinylcarbonyl)-1H-1,2,4-triazol-3-yl]amino]-benzenesulfonamide]	> 100000	~100000
Nc1nc(Nc2ccc(S(N)(=O)=O)cc2)nn1C(=O)c1cccnc1 [Cpd 28, 4-[[5-amino-1-(3-pyridinylcarbonyl)-1H-1,2,4-triazol-3-yl]amino]-benzenesulfonamide]	13200	982
Nc1nc(Nc2ccc(S(N)(=O)=O)cc2)nn1C(=O)c1ccncc1 [Cpd 29, 4-[[5-amino-1-(4-pyridinylcarbonyl)-1H-1,2,4-triazol-3-yl]amino]-benzenesulfonamide]	~100000	70400
